Results from patent EP4631940A1, “COMPOUND TARGETING PAN-KRAS PROTEIN DEGRADATION AGENT AND USE THEREOF” (Betta Pharmaceuticals Co., Ltd., priority 2022, dated 2024).

system: AGS; assay: Cell proliferation experiment (CellTiter-Glo); assay type: cell-based; details: AGS, KRAS mutation type G12D; 96 h incubation; read-out: IC50(nM) AGS

Compound | IC50 [nM]
(2S,4R)-1-((S)-2-(4-(5-((((3R,7aR)-7a-(((7-(8-ethyl-7-fluoro-3-hydroxynaphthalen-1-yl)-8-fluor o-4-((R)-3-hydroxy-3-methylpiperidin-l-yl)pyrido[4,3-d]pyrimidin-2-yl)oxy)methyl)hexahydro-1H-pyrrolizin-3-yl)methoxy)pyrazin-2-yl)-1H-1,2,3-triazol-1-yl)-3-methylbutanoyl)-4-hydroxy-N-((S)-1-(4-(4-methylthiazol-5-yl)phenyl)ethyl)pyrrolidine-2-carboxamide [Compound 188] | 12
CCc1c(F)ccc2cc(O)cc(-c3ccc4c(N5CCC[C@@](C)(O)C5)nc(OCC5(CN6CCC7(CC6)CN(c6cnc(-c8cn([C@H](C(=O)N9C[C@H](O)C[C@H]9C(=O)N[C@@H](C)c9ccc(-c%10scnc%10C)cc9)C(C)C)nn8)cn6)C7)CC5)nc4c3F)c12 [Compound 186] | 20
CCc1c(F)ccc2cc(O)cc(-c3ncc4c(N5CCC[C@@](C)(O)C5)nc(OCC5(CN6CCC(Oc7ccc(-c8cn([C@H](C(=O)N9C[C@H](O)C[C@H]9C(=O)N[C@@H](C)c9ccc(-c%10scnc%10C)cc9)C(C)C)nn8)nn7)CC6)CC5)nc4c3F)c12 [Compound 167] | 8.8
CCc1c(F)ccc2cc(O)cc(-c3ncc4c(N5CCC[C@@](C)(O)C5)nc(OCC5(CN6CCN(Cc7cnc(-c8cn([C@H](C(=O)N9C[C@H](O)C[C@H]9C(=O)N[C@@H](C)c9ccc(-c%10scnc%10C)cc9)C(C)C)nn8)s7)CC6)CC5)nc4c3F)c12 [Compound 187] | 7.5
(2S,4R)-1-((S)-2-(4-(5-(7-((7-(8-ethyl-7-fluoro-3-hydroxynaphthalen-1-yl)-8-fluoro-4-((R)-3-hy droxy-3-methylpiperidin-1-yl)pyrido[4,3-d]pyrimidin-2-yl)oxy)methyl)cyclopropyl)methyl)-2,7-azaspiro[3.5]nonan-2-yl)pyrazin-2-yl)-1H-1,2,3-triazol-1-yl)-3-methylbutanoyl)-4-hydroxy-N-(( S)-1-(4-methylthiazol-5-yl)phenyl)ethyl)pyrrolidine-2-carboxamide [Compound 168] | 5.6
(2S,4R)-1-((S)-2-(4-(5-(1-((1-((7-(8-ethyl-7-fluoro-3-hydroxynaphthalen-1-yl)-8-fluoro-4-((R)-3 -hydroxy-3-methylpiperidin-1-yl)pyrido[4,3-d]pyrimidin-2-yl)oxy)methyl)cyclopropyl)methyl)p iperidin-4-yl)oxy)pyrimidin-2-yl)-1H-1,2,3-triazol-1-yl)-3-methylbutanoyl)-4-hydroxy-N-((S)-1-(4-hydroxyl-N-(4-(4-methylthiazol-5-yl)phenyl)ethyl)pyrrolidine-2-carboxamide [Compound 169] | 20
CCc1c(F)ccc2cc(O)cc(-c3ncc4c(N5CCC[C@@](C)(O)C5)nc(OCC5(CN6CCC(Oc7ncc(-c8cn([C@H](C(=O)N9C[C@H](O)C[C@H]9C(=O)N[C@@H](C)c9ccc(-c%10scnc%10C)cc9)C(C)C)nn8)s7)CC6)CC5)nc4c3F)c12 [Compound 181] | 11
CCc1c(F)ccc2cc(O)cc(-c3ncc4c(N5CCC[C@@](C)(O)C5)nc(OCC5(CN6CCC(Oc7ccc(-c8cn([C@H](C(=O)N9C[C@H](O)C[C@H]9C(=O)N[C@@H](CO)c9ccc(-c%10scnc%10C)cc9)C(C)C)nn8)cn7)CC6)CC5)nc4c3F)c12 [Compound 171] | 13
(2S,4R)-1-((S)-2-(4-(1-((1-((1-(((7-(8-ethyl-7-fluoro-3-hydroxynaphthalen-1-yl)-8-fluoro-4-((R)-3-hydroxy-3-methylpiperidin-1-yl)pyrido[4,3-d]pyrimidin-2-yl)oxy)methyl)piperidin-4-yl)methy l)azetidin-3-yl)-1H-1,2,3-triazol-1-yl)-3-methylbutanoyl)-4-hydroxy-N-((S)-1-(4-(4-methylthiaz ol-5-yl)phenyl)ethyl)pyrrolidine-2-carboxamide [Compound 129] | 37

same assay, conditions: Homo sapiens, AGS, 96 h, read-out: IC50(nM) AGS

Compound | IC50 [nM]
CCc1c(F)ccc2cc(O)cc(-c3ncc4c(N5CCC[C@@](C)(O)C5)nc(OCC5(CN6CCN(C7CC(c8cn([C@H](C(=O)N9C[C@H](O)C[C@H]9C(=O)N[C@@H](C)c9ccc(-c%10scnc%10C)cc9)C(C)C)nn8)C7)CC6)CC5)nc4c3F)c12 (stereo partly drawn) [Compound 165, (2S,4R)-1-((S)-2-(4-(3-(4-((1-(((7-(8-ethyl-7-fluoro-3-hydroxynaphthalen-1-yl)-8-fluoro-4-((R)-3-hydroxy-3-methylpiperidin-1-yl)pyrido[4,3-d]pyrimidin-2-yl)oxy)methyl)cyclopropyl)methyl)piperazin-1-yl)cyclobutyl)-1H-1,2,3-triazol-1-yl)-3-methylbutanoyl)-4-hydroxy-N-((S)-1-(4-(4-methylthiazol-5-yl)phenyl)ethyl)pyrrolidine-2-carboxamide] | 9.2

same assay, conditions: read-out: IC50(nM) AGS

Compound | IC50 [nM]
(2S,4R)-1-((S)-2-(4-(5-((4-((1-(((7-(8-ethyl-7-fluoro-3-hydroxynaphthalen-1-yl)-8-fluoro-4-((R)-3-hydroxy-3-methylpiperidin-1-yl)pyrido[4,3-d]pyrimidin-2-yl)oxy)methyl)cyclopropyl)methyl) piperazin-1-yl)methyl)piperazin-3-yl)-1H-1,2,3-triazol-1-yl)-3-methylbutanoyl)-4-hydroxy-N-((S )-1-(4-(4-methylthiazol-5-yl)phenyl)ethyl)pyrrolidine-2-carboxamide [Compound 177] | 4.2
C=C1CN2[C@H](COC(=O)N3CCN(c4cc([C@H](C(=O)N5C[C@H](O)C[C@H]5C(=O)N[C@@H](C)c5ccc(-c6scnc6C)cc5)C(C)C)on4)CC3)CC[C@@]2(COc2nc(N3CCC[C@@](C)(O)C3)c3cnc(-c4cc(O)cc5ccc(F)c(CC)c45)c(F)c3n2)C1 [Compound 110] | 52
(2S,4R)-1-((S)-2-(4-(6-((1-((1-(((7-(8-ethyl-7-fluoro-3-hydroxynaphthalen-1-yl)-8-fluoro-4-((R)-3-hydroxy-3-methylpiperidin-1-yl)pyrido[4,3-d]pyrimidin-2-yl)oxy)methyl)cyclopropyl)methyl) -4-methylpiperidin-4-yl)oxy)piperidin-3-yl)-1H-1,2,3-triazol-1-yl)-3-methylbutanoyl)-4-hydroxy -N-((S)-1-(4-(4-methylthiazol-5-yl)phenyl)ethyl)pyrrolidine-2-carboxamide [Compound 176] | 33
C#Cc1c(F)ccc2cc(O)cc(-c3ncc4c(N5CCCOCC5)nc(OC[C@]56CCCN5[C@@H](COC(=O)N5CCC7(CC5)CC(C(=O)N[C@H](C(=O)N5C[C@H](O)C[C@H]5C(=O)N[C@@H](C)c5ccc(-c8scnc8C)cc5)C(C)(C)C)C7)CC6)nc4c3F)c12 [Compound 90] | 83
(2S,4R)-1-((S)-2-(4-(1-((1-((1-(((7-(8-ethyl-7-fluoro-3-hydroxynaphthalen-1-yl)-8-fluoro-4-((R)-3-hydroxy-3-methylpiperidin-1-yl)pyrido[4,3-d]pyrimidin-2-yl)oxy)methyl)cyclopropyl)methyl) piperidin-4-yl)methyl)-1H-pyrazol-4-yl)-1H-1,2,3-triazol-1-yl)-3-methylbutanoyl)-4-hydroxy-N-((S)-1-(4-(4-methylthiazol-5-yl)phenyl)ethyl)pyrrolidine-2-carboxamide [Compound 182] | 24
CCc1c(F)ccc2cc(O)cc(-c3ncc4c(N5CCC[C@@](C)(O)C5)nc(OCC5(CN6CCC(Oc7cnc(-c8cn([C@H](C(=O)N9C[C@H](O)C[C@H]9C(=O)N[C@@H](CO)c9ccc(-c%10ccnn%10CC)cc9)C(C)C)nn8)cn7)CC6)CC5)nc4c3F)c12 [Compound 172] | 3.6
